The assay concerns the target T1, Poly [ADP-ribose] polymerase tankyrase-2 (Homo sapiens, UniProt Q9H2K2).
T1 sequence (Q9H2K2 whole entry): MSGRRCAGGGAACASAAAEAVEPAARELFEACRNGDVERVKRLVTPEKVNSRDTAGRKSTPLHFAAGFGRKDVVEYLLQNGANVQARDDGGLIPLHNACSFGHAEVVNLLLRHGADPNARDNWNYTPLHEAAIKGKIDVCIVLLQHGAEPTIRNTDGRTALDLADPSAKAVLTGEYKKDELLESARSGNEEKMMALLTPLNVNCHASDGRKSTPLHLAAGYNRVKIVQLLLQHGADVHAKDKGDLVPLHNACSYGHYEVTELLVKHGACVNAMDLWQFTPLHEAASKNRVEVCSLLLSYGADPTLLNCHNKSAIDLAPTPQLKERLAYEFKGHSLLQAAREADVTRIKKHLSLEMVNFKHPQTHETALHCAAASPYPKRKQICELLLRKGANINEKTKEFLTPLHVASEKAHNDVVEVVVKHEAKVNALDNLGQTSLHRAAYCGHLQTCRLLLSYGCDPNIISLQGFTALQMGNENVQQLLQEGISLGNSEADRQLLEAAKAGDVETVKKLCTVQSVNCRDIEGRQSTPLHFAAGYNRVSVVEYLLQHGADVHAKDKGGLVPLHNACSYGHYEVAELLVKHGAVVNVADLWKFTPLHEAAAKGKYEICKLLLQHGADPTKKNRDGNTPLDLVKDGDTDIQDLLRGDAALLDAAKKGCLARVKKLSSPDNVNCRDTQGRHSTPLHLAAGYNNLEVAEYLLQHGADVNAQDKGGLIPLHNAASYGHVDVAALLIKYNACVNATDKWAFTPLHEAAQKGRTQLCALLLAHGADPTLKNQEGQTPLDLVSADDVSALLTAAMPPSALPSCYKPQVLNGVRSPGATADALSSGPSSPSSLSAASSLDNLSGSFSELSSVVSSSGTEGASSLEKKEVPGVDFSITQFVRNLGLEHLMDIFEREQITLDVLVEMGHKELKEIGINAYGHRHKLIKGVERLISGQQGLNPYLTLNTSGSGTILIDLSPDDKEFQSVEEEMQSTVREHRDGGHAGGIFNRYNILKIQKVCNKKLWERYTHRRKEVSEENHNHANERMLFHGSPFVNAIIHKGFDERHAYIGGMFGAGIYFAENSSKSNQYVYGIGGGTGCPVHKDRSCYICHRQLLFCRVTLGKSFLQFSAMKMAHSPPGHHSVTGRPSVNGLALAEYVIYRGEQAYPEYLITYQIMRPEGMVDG
Put plainly: Activity of N-terminus hexaHis-tagged human TNSK2 expressed in Escherichia coli BL21 (DE3) cells using biotinylated NAD+ as substrate after 90 mins by Western blot analysis.

The record followed here is ChEMBL document CHEMBL2029260, “Structural basis of selective inhibition of human tankyrases” (J Med Chem, 2012).

`O=C(NCc1ccncc1)c1ccc(N2C(=O)[C@@H]3[C@H](C2=O)[C@@H]2C=C[C@H]3C2)cc1`: the EC50 – broadly, the concentration at which the effect is half-maximal – was found to be 10 µM.

As to `O=C(Nc1ccccc1)c1ccc(N2C(=O)[C@@H]3[C@H](C2=O)[C@@H]2C=C[C@H]3C2)cc1`, the concentration for a half-maximal effect (EC50) was above 25 µM.

`CO[C@H]1CCCC[C@@H]1NC(=O)c1ccc(N2C(=O)[C@@H]3[C@H](C2=O)[C@@H]2C=C[C@H]3C2)cc1` showed an EC50 of 2 µM.

For the compound `O=C(Nc1ccc(Br)cc1)c1ccc(N2C(=O)[C@@H]3[C@H](C2=O)[C@@H]2C=C[C@H]3C2)cc1`, it took 1 µM to reach a half-maximal effect (EC50). Compared with the last compound, the EC50 is about 2-fold lower.

Take `O=C(NC1CCCCC1)c1ccc(N2C(=O)[C@@H]3[C@H](C2=O)[C@@H]2C=C[C@H]3C2)cc1`: the EC50 was above 25 µM.

Regarding `O=C(NCc1ccccc1)c1ccc(N2C(=O)[C@@H]3[C@H](C2=O)[C@@H]2C=C[C@H]3C2)cc1`, the concentration giving a half-maximal response (EC50) was 20 µM.
